Measurements: patent US12077555B2, “STAT degraders and uses thereof” (Kymera Therapeutics, Inc., priority 2019, dated 2024)

The compounds below were run against STAT3 (Homo sapiens, UniProt P40763) (assay: STAT3 HiBiT degradation assay in transfected A549 cells). Details: A549, 24 h; read-out: STAT3 HiBiT A549 degradation 24 h: Average external-Abs DC50.
STAT3, sequence (P40763 whole entry): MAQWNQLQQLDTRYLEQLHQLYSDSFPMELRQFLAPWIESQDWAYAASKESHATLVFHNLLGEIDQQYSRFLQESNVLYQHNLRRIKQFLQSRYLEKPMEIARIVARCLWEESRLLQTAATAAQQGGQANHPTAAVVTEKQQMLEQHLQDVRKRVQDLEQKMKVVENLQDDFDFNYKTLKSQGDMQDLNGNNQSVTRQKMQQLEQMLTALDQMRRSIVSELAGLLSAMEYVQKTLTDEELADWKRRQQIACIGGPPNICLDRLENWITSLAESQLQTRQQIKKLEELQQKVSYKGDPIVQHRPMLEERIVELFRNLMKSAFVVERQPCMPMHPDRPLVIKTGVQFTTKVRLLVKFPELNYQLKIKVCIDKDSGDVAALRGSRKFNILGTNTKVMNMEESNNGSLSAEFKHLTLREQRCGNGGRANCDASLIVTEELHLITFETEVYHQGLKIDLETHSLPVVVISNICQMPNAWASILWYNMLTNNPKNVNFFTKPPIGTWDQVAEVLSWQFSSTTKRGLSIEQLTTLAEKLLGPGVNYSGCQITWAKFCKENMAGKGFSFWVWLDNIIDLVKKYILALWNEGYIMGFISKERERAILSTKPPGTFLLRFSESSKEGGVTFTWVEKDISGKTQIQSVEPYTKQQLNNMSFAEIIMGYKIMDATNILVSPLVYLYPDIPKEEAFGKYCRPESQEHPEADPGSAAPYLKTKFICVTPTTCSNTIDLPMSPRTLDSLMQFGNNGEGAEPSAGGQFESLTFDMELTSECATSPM
Assay type: cell-based
Set-up: expressed in transfected cells; host or cells: A549
Experimental: Compound preparation and Cell seeding: The transfected A549 cells were harvested from dish into cell culture medium and cell numbers counted. Cells were diluted with culture medium to the desired density and 30 μL of cell suspension (about 2000 cells/well) were added into each well of a 384-well cell culture plate as designated and transferred into 37° C. 5% CO2 incubator for 24 h. Compounds were dissolved to 10 mM stock solution and 12 μL of the stock solution was transferred to a 384 LDV-plate. 3 fold, 10-point dilution was performed by transferring 4 μL compound into 8 μL DMSO using a TECAN (EVO200) liquid handler. 30 μL of diluted compound from compound source plate was transferred into the cell plate as designated by using Echo550 and transferred into 37° C. 5% CO2 incubator for 24 h.
Detection: Plates were removed from incubators and equilibrated at room temperature for 15 minutes. Nano-Glo Hibit Lytic Detection reagent (Promega Cat #N3040) was thawed and equilibrated to room temperature before the experiment. 30 μL of Nano-Glo Hibit Lytic Detection reagent was added into each well to be detected. The plates were held at room temperature for 10 min followed by reading on EnSpire.
Data analysis: The remaining activity was calculated following the formula: Remaining Activity (%)=100%×(Lumsample−LumNC)/(LumPC−LumNC). Calculate the IC50 by fitting the curve using Xlfit (v5.3.1.3), equation 201: fit=(A+((B−A)/(1+((x/C)^D)))); A: Bottom; B: Top; C: IC50; and D: Slope.
The letter codes for STAT3 DC50 include: A (<0.01 μM), B (0.01-0.1 μM), C (0.1-1.0 μM), and D (>1.0 μM).
C/C(=C\C(=O)N[C@H]1CCc2cccc3c2N(C1=O)[C@H](C(=O)N[C@@H](CCC(N)=O)[C@@H](C)OCc1ccc(CCCCC(=O)N[C@H](C(=O)N2C[C@@H](O)C[C@H]2C(=O)NCc2ccc(-c4scnc4C)cc2)C(C)(C)C)cc1)C3)c1ccc(C(F)(F)P(=O)(O)O)cc1 [Compound I-119] was tested, and the DC50 was > 1000 nM.
Cc1ncsc1-c1ccc(CNC(=O)[C@@H]2C[C@H](O)CN2C(=O)[C@@H](NC(=O)CCCCc2ccc(CO[C@H](C)[C@H](CCC(N)=O)NC(=O)[C@@H]3Cc4cccc5c4N3C(=O)[C@@H](NC(=O)c3cc4cc(C(=O)P(=O)(O)O)ccc4[nH]3)CC5)cc2)C(C)(C)C)cc1 [Compound I-121, diammonium 2-[[(2S,11S)-2-[[(3S,4R)-1-carbamoyl-4-[[4-(4-[[(2S)-1-[(2S,4S)-4-hydroxy-2-([[4-(4-methyl-1,3-thiazol-5-yl)phenyl]methyl]carbamoyl)pyrrolidin-1-yl]-3,3-dimethyl-1-oxobutan-2-yl]carbamoyl]butyl)phenyl]methoxy]pentan-3-yl]carbamoyl]-12-oxo-1-azatricyclo[6.4.1.0^[4,13]]trideca-4(13),5,7-trien-11-yl]carbamoyl]-1H-indole-5-carbonylphosphonate] was tested, and the DC50 was > 1000 nM.
Cn1c(=O)n(C2CCC(=O)NC2=O)c2cccc(CCCC(=O)N3CC[C@H]4CC[C@@H](C(=O)N[C@@H](CCC(N)=O)C(=O)NC(c5ccccc5)c5ccccc5)N4C(=O)[C@@H](NC(=O)c4cc5cc(C(=O)P(=O)(O)O)ccc5[nH]4)C3)c21 (stereo partly drawn) [Compound I-122, 2-[[(5S,8S,10aR)-8-[[(1S)-3-carbamoyl-1-(diphenylmethylcarbamoyl)propyL]carbamoyl]-3-[4-[1-(2,6-dioxopiperidin-3-yl)-3-methyl-2-oxo-1,3-benzodiazol-4-yl]butanoyl]-6-oxo-octahydropyrrolo[1,2-a][1,5]diazocin-5-yl]carbamoyl]-1H-indole-5-carbonylphosphonic acid] was tested, and the DC50 was > 1000 nM.
In the case of Cn1c(=O)n(C2CCC(=O)NC2=O)c2cccc(CCCCCC(=O)N3CC[C@H]4CC[C@@H](C(=O)N[C@@H](CCC(N)=O)C(=O)NC(c5ccccc5)c5ccccc5)N4C(=O)[C@@H](NC(=O)c4cc5cc(C(=O)P(=O)(O)O)ccc5[nH]4)C3)c21 (stereo partly drawn) [Compound I-123, 2-[[(5S,8S,10aR)-8-[[(1S)-3-carbamoyl-1-(diphenylmethylcarbamoyl)propyl]carbamoyl]-3-[6-[1-(2,6-dioxopiperidin-3-yl)-3-methyl-2-oxo-1,3-benzodiazol-4-yl]hexanoyl]-6-oxo-octahydropyrrolo[1,2-a][1,5]diazocin-5-yl]carbamoyl]-1H-indole-5-carbonylphosphonic acid], the DC50 is reported as > 1000 nM.
With Cn1c(=O)n(C2CCC(=O)NC2=O)c2cccc(CCCCCCC(=O)N3CC[C@H]4CC[C@@H](C(=O)N[C@@H](CCC(N)=O)C(=O)NC(c5ccccc5)c5ccccc5)N4C(=O)[C@@H](NC(=O)c4cc5cc(C(=O)P(=O)(O)O)ccc5[nH]4)C3)c21 (stereo partly drawn) [Compound I-124, 2-[[(5S,8S,10aR)-8-[[(1S)-3-carbamoyl-1-(diphenylmethylcarbamoyl)propyl]carbamoyl]-3-[7-[1-(2,6-dioxopiperidin-3-yl)-3-methyl-2-oxo-1,3-benzodiazol-4-yl]heptanoyl]-6-oxo-octahydropyrrolo[1,2-a][1,5]diazocin-5-yl]carbamoyl]-1H-indole-5-carbonylphosphonic acid] the DC50 was > 1000 nM.
In the case of Cn1c(=O)n(C2CCC(=O)NC2=O)c2cccc(CCCCCCCCC(=O)N3CC[C@H]4CC[C@@H](C(=O)N[C@@H](CCC(N)=O)C(=O)NC(c5ccccc5)c5ccccc5)N4C(=O)[C@@H](NC(=O)c4cc5cc(C(=O)P(=O)(O)O)ccc5[nH]4)C3)c21 (stereo partly drawn) [Compound I-125, 2-[[(5S,8S,10aR)-8-[[(1S)-3-carbamoyl-1-(diphenylmethylcarbamoyl)propyl]carbamoyl]-3-[9-[1-(2,6-dioxopiperidin-3-yl)-3-methyl-2-oxo-1,3-benzodiazol-4-yl]nonanoyl]-6-oxo-octahydropyrrolo[1,2-a][1,5]diazocin-5-yl]carbamoyl]-1H-indole-5-carbonylphosphonic acid], the DC50 is reported as 100 to 1000 nM.
With Cc1ncsc1-c1ccc(CNC(=O)[C@@H]2C[C@@H](O)CN2C(=O)[C@@H](NC(=O)CCc2ccc3ccc(CO[C@H](C)[C@H](CCC(N)=O)NC(=O)[C@@H]4Cc5cccc6c5N4C(=O)[C@@H](NC(=O)c4cc5cc(C(=O)P(=O)(O)O)ccc5[nH]4)CC6)cc3c2)C(C)(C)C)cc1 [Compound I-126] the DC50 was > 1000 nM.
In the case of Cc1ncsc1-c1ccc(CNC(=O)[C@@H]2C[C@@H](O)CN2C(=O)[C@@H](NC(=O)CCCc2ccc3cc(CO[C@H](C)[C@H](CCC(N)=O)NC(=O)[C@@H]4Cc5cccc6c5N4C(=O)[C@@H](NC(=O)c4cc5cc(C(=O)P(=O)(O)O)ccc5[nH]4)CC6)ccc3c2)C(C)(C)C)cc1 [Compound I-127, diammonium 2-[[(2S,11S)-2-[[(3S,4R)-1-carbamoyl-4-[[6-(3-[[(2S)-1-[(2S,4R)-4-hydroxy-2-([[4-(4-methyl-1,3-thiazol-5-yl)phenyl]methyl]carbamoyl)pyrrolidin-1-yl]-3,3-dimethyl-1-oxobutan-2-yl]carbamoyl]propyl)naphthalen-2-yl]methoxy]pentan-3-yl]carbamoyl]-12-oxo-1-azatricyclo[6.4.1.0^[4,13]]trideca-4(13),5,7-trien-11-yl]carbamoyl]-1H-indole-5-carbonylphosphonate], the DC50 is reported as 100 to 1000 nM.
Cn1c(=O)n(C2CCC(=O)NC2=O)c2ccc(N3CCC(CCCC(=O)N4CC[C@H]5CC[C@@H](C(=O)N[C@@H](CCC(N)=O)C(=O)NC(c6ccccc6)c6ccccc6)N5C(=O)[C@@H](NC(=O)c5cc6cc(C(=O)P(=O)(O)O)ccc6[nH]5)C4)CC3)cc21 (stereo partly drawn) [Compound I-128, 2-[[(5S,8S,10aR)-8-[[(1S)-3-carbamoyl-1-(diphenylmethylcarbamoyl)propyl]carbamoyl]-3-(4-[1-[1-(2,6-dioxopiperidin-3-yl)-3-methyl-2-oxo-1,3-benzodiazol-5-yl]piperidin-4-yl]butanoyl)-6-oxo-octahydropyrrolo[1,2-a][1,5]diazocin-5-yl]carbamoyl]-1H-indole-5-carbonylphosphonic acid] was tested, and the DC50 was 100 to 1000 nM.
Cc1ncsc1-c1ccc(CNC(=O)[C@@H]2C[C@@H](O)CN2C(=O)[C@@H](NC(=O)CCC/C=C/c2ccc(CO[C@H](C)[C@H](CCC(N)=O)NC(=O)[C@@H]3Cc4cccc5c4N3C(=O)[C@@H](NC(=O)c3cc4cc(C(=O)P(=O)(O)O)ccc4[nH]3)CC5)cc2)C(C)(C)C)cc1 [Compound I-129, diammonium 2-[[(2S,11S)-2-[[(3S,4R)-1-carbamoyl-4-([4-[(1E)-5-[[(2S)-1-[(2S,4R)-4-hydroxy-2-([[4-(4-methyl-1,3-thiazol-5-yl)phenyl]methyl]carbamoyl)pyrrolidin-1-yl]-3,3-dimethyl-1-oxobutan-2-yl]carbamoyl]pent-1-en-l-yl]phenyl]methoxy)pentan-3-yl]carbamoyl]-12-oxo-1-azatricyclo[6.4.1.0^[4,13]]trideca-4(13),5,7-trien-11-yl]carbamoyl]-1H-indole-5-carbonylphosphonate] was tested, and the DC50 was 100 to 1000 nM.
In the case of Cc1ncsc1-c1ccc(CNC(=O)[C@@H]2C[C@@H](O)CC2C(=O)[C@@H](NC(=O)CC/C=C/c2ccc(CO[C@H](C)[C@H](CCC(N)=O)NC(=O)[C@@H]3Cc4cccc5c4N3C(=O)[C@@H](NC(=O)c3cc4cc(C(=O)P(=O)(O)O)ccc4[nH]3)CC5)cc2)C(C)(C)C)cc1 (stereo partly drawn) [Compound I-130, diammonium 2-[[(2S,11S)-2-[[(3S,4R)-1-carbamoyl-4-([4-[(1E)-4-[[(2S)-1-[(2S,4R)-4-hydroxy-2-([[4-(4-methyl-1,3-thiazol-5-yl)phenyl]methyl]carbamoyl)pyrrolidin-1-yl]-3,3-dimethyl-1-oxobutan-2-yl]carbamoyl]but-1-en-1-yl]phenyl]methoxy)pentan-3-yl]carbamoyl]-12-oxo-1-azatricyclo[6.4.1.0^[4,13]]trideca-4(13),5,7-trien-11-yl]carbamoyl]-1H-indole-5-carbonylphosphonate], the DC50 is reported as > 1000 nM.

Same assay, conditions: read-out: STAT3 HiBiT A549 degradation 24 h: Average external-Abs DC50; A549, 24 h
For CN1C(=O)CCC(N2Cc3c(C#CCCCCCC(=O)N4CC[C@H]5CC[C@@H](C(=O)N[C@@H](CCC(N)=O)C(=O)NC(c6ccccc6)c6ccccc6)N5C(=O)[C@@H](NC(=O)c5cc6cc(C(=O)P(=O)(O)O)ccc6[nH]5)C4)cccc3C2=O)C1=O (stereo in doubt) [Compound I-120, diammonium 2-[[(5S,8S,10aR)-8-[[(1S)-3-carbamoyl-1-(diphenylmethylcarbamoyl)propyl]carbamoyl]-3-[8-[2-(1-methyl-2,6-dioxopiperidin-3-yl)-1-oxo-3H-isoindol-4-yl]oct-7-ynoyl]-6-oxo-octahydropyrrolo[1,2-a][1,5]diazocin-5-yl]carbamoyl]-1H-indole-5-carbonylphosphonate], the DC50 was > 1000 nM.
